Test results: patent US10093656B2, “Fused-ring or tricyclic aryl pyrimidine compound used as kinase inhibitor” (NANJING SANHOME PHARMACEUTICAL CO., LTD, priority 2015, dated 2018)

How the values were obtained:
EGFR wild type = molecular target: T1, EGFR wild type (Homo sapiens, UniProt P00533); test: Wild-type EGFR enzyme HTRF inhibition assay; format: biochemical; settings: 25 μM ATP, read-out: EGFR WT IC50
T1 construct: purchased Life technology (Madison, Wis.)
Procedure: (§1) Enzyme: EGFR wild type, EGFR T790M/L858R, EGFR T790M and INSR were purchased from Life technology (Madison, Wis.), EGFR d746-750/T790M was purchased from Carna Biosciences (Japan).
(§2) HTRF Kit was purchased from Cis-Bio International which contained the Eu-labeled TK1 antibody, XL665 and biotin-labeled TK1 polypeptide substrates.
(§3) Detecting instrument: Envision (PerkinElmer).
(§4) The test compound was diluted 3-fold to obtain 10 doses of which the final concentration was from 300 nM to 0.015 nM.
Wild-Type EGFR Enzyme Reaction Mixture System:
0.05 nM Wild-type EGFR, 1 μM biotin-TK1 peptide, 25 μM ATP enzyme buffer, a total of which was 10 μL. The reaction plate was white Proxiplate 384-Plus plate (PerkinElmer) and the mixture was reacted at 23° C. for 60 minutes.
(§5) Reaction Detection: 10 μL of detection reagent containing Antibody 2 nM and XL665 62.5 nM was added, and the reagent was incubated at 23° C. for 60 minutes. The plates were read by Envision.
(§6) The reading is converted to the suppression rate (%) by the following formula […]/(Max-Min)*100%. IC50 Data was measured by four-parameter curve fitting (Model 205 in XLFITS, IDBS).

EGFR d746-750/T790M = molecular target: T2, EGFR d746-750/T790M (Homo sapiens, UniProt P00533, DEL746-750/T790M); test: EGFR d746-750/T790M enzyme HTRF inhibition assay; format: biochemical; settings: 40 μM ATP
T2 construct: purchased Carna Biosciences (Japan)
T2 sequence (P00533 with tags, fused parts or gaps DEL746-750/T790M limits assumed): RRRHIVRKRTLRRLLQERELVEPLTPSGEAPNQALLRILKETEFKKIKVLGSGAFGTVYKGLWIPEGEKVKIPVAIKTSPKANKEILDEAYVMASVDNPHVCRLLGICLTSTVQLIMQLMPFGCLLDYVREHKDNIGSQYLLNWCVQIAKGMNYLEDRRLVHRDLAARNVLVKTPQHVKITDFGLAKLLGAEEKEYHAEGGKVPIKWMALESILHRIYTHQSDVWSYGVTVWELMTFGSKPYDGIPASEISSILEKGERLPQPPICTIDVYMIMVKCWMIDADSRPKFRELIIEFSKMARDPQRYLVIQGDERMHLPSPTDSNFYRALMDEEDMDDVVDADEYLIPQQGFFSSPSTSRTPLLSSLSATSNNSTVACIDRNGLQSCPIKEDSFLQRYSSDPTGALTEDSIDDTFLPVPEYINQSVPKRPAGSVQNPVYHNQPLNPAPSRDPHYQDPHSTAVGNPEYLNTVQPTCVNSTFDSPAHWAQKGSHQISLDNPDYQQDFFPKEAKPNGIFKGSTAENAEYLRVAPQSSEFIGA
Procedure: as §1, §2, §3, §4
EGFR d746-750/T790M Enzyme Reaction Mixture System:
0.025 nM EGFR d746-750/T790M, 1 μM biotin-TK1 peptide, 40 μM ATP enzyme buffer, a total of which was 10 μL. The reaction plate was white Proxiplate 384-Plus plate (PerkinElmer) and the mixture was reacted at 23° C. for 60 minutes.
as §5, §6

[1] = tested on: NCI-H1975 cells EGFR L858R/T790M; test: NCI-H1975 cell viability assay (Cell Titer-Glo, 6 days); format: cell-based; settings: Homo sapiens, 144 h
Procedure: (§7) RPMI1640, fetal bovine serum, penicillin/streptomycin solution were purchased from Life Technology (Madison, Wis.). Cell Titer-Glo luminescent cell viability reagents were purchased from Promega (Madison, Wis.). A431 cell line and NCI-H1975 cell line were purchased from European Collection of Cell Cultures (ECACC). Plate Reader Instrument: Envision (PerkinElmer).
(§8) 384-Well plates, 300 of A431 cells and NCI-H1975 cells were inoculated per well, a volume of which was 45 μL. And the plates were incubated overnight in a CO2 incubator at 37° C. The test compound was diluted 3-fold to obtain 10 dose concentrations, the final concentrations of which were from 10 μM to 0.508 nM, two wells. The middle plates were filled with 49 μL of medium per well. 1 μL of compound in the gradient dilution compound plates was transferred to the middle plates and mixed well. And then 5 μL liquid in the middle plates was taken to the cell plates. The cells were incubated in a CO2 incubator for 6 days. After 6 days, 25 μL of detection reagents was added. And then the mixture was incubated at room temperature for 10 minutes and the plates were read by Envision.
(§9) The reading is converted to the suppression rate by the following formula (%) (Max-Sample)/(Max-Min)*100%. IC50 Data was measured by Four-parameter curve fitting (Model 205 in XLFIT5, IDBS).

A431 cells EGFR WT = test: A431 cell viability assay (Cell Titer-Glo, 6 days); format: cell-based, human; settings: for IC50: Homo sapiens, A-431, 144 h, A431 cells, 6 days; for A431:NCI-H1975 (ratio): ratio of cell IC50 A431 to NCI-H1975
Procedure: as §7, §8, §9

EGFR T790M/L858R = molecular target: T3, EGFR T790M/L858R (Homo sapiens, UniProt P00533, L858R/T790M); test: EGFR T790M/L858R enzyme HTRF inhibition assay; format: biochemical; settings: 20 μM ATP, read-out: EGFR L858R/T79M IC50
T3 construct: purchased Life technology (Madison, Wis.)
T3 sequence (P00533 25-1210 T790M/L858R): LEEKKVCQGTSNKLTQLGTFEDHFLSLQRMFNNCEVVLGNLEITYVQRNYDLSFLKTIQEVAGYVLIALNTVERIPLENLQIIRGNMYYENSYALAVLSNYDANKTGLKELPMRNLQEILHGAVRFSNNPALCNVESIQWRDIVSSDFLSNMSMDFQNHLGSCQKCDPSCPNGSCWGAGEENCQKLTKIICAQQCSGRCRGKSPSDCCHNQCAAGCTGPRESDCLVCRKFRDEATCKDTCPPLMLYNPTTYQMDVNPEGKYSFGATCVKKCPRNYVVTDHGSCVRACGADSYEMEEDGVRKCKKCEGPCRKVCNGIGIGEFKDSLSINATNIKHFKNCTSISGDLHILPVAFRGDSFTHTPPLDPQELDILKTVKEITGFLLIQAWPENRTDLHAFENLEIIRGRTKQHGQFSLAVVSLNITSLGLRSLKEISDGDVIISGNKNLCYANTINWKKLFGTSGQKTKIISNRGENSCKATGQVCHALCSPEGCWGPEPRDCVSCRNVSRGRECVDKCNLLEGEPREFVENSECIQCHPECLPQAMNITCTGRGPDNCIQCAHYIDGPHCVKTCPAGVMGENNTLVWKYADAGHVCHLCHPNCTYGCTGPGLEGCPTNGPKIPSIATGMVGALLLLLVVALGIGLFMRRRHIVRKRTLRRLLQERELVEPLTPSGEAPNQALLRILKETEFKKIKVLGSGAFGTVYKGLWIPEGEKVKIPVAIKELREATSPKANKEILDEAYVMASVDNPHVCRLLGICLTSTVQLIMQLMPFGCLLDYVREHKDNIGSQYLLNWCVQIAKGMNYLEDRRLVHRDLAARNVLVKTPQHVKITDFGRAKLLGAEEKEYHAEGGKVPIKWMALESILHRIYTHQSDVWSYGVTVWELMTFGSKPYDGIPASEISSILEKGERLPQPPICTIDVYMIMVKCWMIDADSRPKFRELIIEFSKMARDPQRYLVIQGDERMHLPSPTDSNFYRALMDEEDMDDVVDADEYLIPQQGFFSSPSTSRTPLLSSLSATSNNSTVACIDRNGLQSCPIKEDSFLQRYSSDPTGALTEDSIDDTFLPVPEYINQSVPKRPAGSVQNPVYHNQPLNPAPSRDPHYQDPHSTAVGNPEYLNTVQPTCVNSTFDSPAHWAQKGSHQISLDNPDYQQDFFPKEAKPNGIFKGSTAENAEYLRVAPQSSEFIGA
Procedure: as §1, §2, §3, §4
EGFR T790M/L858R Enzyme Reaction Mixture System:
0.04 nM EGFR T790M/L858R, 1 μM biotin-TK1 peptide, 20 μM ATP enzyme buffer, a total of which was 10 μL. The reaction plate was white Proxiplate 384-Plus plate (PerkinElmer) and the mixture was reacted at 23° C. for 60 minutes.
as §5, §6

T1 sequence (P00533 25-1210): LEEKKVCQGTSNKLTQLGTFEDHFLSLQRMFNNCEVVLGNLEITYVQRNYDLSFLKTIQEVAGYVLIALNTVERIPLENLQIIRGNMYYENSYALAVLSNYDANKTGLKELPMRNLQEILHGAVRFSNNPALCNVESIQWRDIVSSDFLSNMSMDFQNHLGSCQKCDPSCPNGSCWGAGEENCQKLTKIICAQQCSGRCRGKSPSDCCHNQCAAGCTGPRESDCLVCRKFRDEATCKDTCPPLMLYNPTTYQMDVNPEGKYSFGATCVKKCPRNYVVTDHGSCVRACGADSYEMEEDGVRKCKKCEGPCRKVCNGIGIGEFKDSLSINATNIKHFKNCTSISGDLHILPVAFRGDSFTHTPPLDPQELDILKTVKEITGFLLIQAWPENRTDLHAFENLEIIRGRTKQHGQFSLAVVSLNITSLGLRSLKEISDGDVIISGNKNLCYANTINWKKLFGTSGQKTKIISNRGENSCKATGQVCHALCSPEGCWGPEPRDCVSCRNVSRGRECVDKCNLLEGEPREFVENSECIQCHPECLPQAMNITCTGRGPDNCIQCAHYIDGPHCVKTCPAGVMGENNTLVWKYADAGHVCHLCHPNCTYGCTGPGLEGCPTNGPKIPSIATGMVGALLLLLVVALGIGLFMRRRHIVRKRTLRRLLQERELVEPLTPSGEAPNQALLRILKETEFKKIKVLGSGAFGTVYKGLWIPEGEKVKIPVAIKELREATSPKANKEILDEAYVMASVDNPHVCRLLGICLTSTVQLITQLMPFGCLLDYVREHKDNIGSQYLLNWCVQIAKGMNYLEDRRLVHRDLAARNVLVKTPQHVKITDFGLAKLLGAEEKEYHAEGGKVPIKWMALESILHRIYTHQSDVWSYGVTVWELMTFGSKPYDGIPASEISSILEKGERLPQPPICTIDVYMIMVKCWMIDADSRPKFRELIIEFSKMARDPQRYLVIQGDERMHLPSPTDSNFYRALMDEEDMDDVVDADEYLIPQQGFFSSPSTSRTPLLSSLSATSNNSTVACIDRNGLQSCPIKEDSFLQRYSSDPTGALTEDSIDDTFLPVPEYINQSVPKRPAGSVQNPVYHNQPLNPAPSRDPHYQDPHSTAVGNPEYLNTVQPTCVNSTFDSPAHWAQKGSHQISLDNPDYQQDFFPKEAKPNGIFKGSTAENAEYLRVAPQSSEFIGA

SMILES | IC50 (EGFR wild type) | IC50 (EGFR d746-750/T790M) | IC50 [1] | IC50 (A431 cells EGFR WT) | IC50 (EGFR T790M/L858R) | A431:NCI-H1975 (ratio) (A431 cells EGFR WT)
C=CC(=O)Nc1cc(Nc2nccc(-c3c4n(c5ccccc35)CCC4)n2)c(OC)cc1N(C)CCCN(C)C [Embodiment 7, N-(5-((4-(2,3-Dihydro-1H-pyrrolo[1,2-a]indol-9-yl)pyrimidin-2-yl)amino)-2-((3-(dimethylamino)propyl)(methyl)amino)-4-methoxyphenyl)acrylamide] | 33 nM | 2.59 nM | 496 nM | 3720 nM | 2.19 nM | 7.5
C=CC(=O)Nc1cc(Nc2nccc(-c3c4n(c5ccccc35)CCOC4)n2)c(OC)cc1N(CC)CCNCC [Embodiment 21, N-(5-((4-(3,4-Dihydro-1H-[1,4]oxazino[4,3-a]indol-10-yl)pyrimidin-2-yl)amino)-2-(ethyl(2-(ethylamino)ethyl)amino)-4-methoxyphenyl)acrylamide] | – | – | 50 nM | 1440 nM | – | 29
C=CC(=O)Nc1cc(Nc2nccc(-c3c4n(c5ccccc35)CCOC4)n2)c(OC)cc1N(CC)CCN(C)CC [Embodiment 22, N-(5-((4-(3,4-Dihydro-1H-[1,4]oxazino[4,3-a]indol-10-yl)pyrimidin-2-yl)amino)-2-(ethyl(2-(ethyl(methyl)amino)ethyl)amino)-4-methoxyphenyl)acrylamide] | – | – | 50.4 nM | 1330 nM | – | 26
C=CC(=O)Nc1cc(Nc2nccc(-c3c4n(c5ccccc35)CCOC4)n2)c(OC)cc1N(C)CCNC(C)C [Embodiment 23, N-(5-((4-(3,4-Dihydro-1H-[1,4]oxazino[4,3-a]indol-10-yl)pyrimidin-2-yl)amino)-2-((2-(isopropylamino)ethyl)(methyl)amino)-4-methoxyphenyl)acrylamide] | – | – | 63 nM | 1570 nM | – | 25
C=CC(=O)Nc1cc(Nc2nccc(-c3c4n(c5ccccc35)CCOC4)n2)c(OC)cc1N(C)CCN1CCC1 [Embodiment 26, N-(2-((2-(Azetidin-1-yl)ethyl)(methyl)amino)-5-((4-(3,4-dihydro-1H-[1,4]oxazino[4,3-a]indol-10-yl)pyrimidin-2-yl)amino)-4-methoxyphenyl)acrylamide] | – | – | 102 nM | 2210 nM | – | 22

Now from value to compound, other results behind:

IC50 (EGFR wild type) | IC50 (EGFR d746-750/T790M) | IC50 [1] | IC50 (A431 cells EGFR WT) | IC50 (EGFR T790M/L858R) | SMILES | A431:NCI-H1975 (ratio) (A431 cells EGFR WT)
4.31 nM | 0.67 nM | 4740 nM | > 10000 nM | 0.55 nM | C=CC(=O)Nc1cc(Nc2nccc(-c3c4n(c5ccccc35)CCC4)n2)c(OC)cc1N1CC(N(C)C)C1 [Embodiment 2, N-(5-((4-(2,3-Dihydro-1H-pyrrolo[1,2-a]indol-9-yl)pyrimidin-2-yl)amino)-2-(3-(dimethylamino)azetidin-1-yl)-4-methoxyphenyl)acrylamide] | >2.1
60 nM | 2.7 nM | 434 nM | 4620 nM | 3.25 nM | C=CC(=O)Nc1cc(Nc2nccc(-c3c4n(c5ccccc35)CCC4)n2)c(OC)cc1N1CCN(C)CC1 [Embodiment 4, 2-(2-Methoxy-4-(N-methyl)piperazine-5-acrylamidoanilino)-4-(3-(1,2,3-dihydropyrrolo[1,2-a]indol))pyrimidine] | 10.6
7.28 nM | 0.97 nM | 19 nM | 2670 nM | 0.93 nM | C=CC(=O)Nc1cc(Nc2nccc(-c3c4n(c5ccccc35)CCC4)n2)c(OC)cc1N(C)CCN1CCCC1 [Embodiment 5] | 140.6
20.3 nM | 3.29 nM | 4330 nM | > 10000 nM | 3.07 nM | C=CC(=O)Nc1cc(Nc2nccc(-c3c4n(c5ccccc35)CCC4)n2)c(OC)cc1N1CCC(N(C)C)C1 (stereo not drawn) [Embodiment 6, N-(5-((4-(2,3-Dihydro-1H-pyrrolo[1,2-a]indol-9-yl)pyrimidin-2-yl)amino)-2-(3-(dimethylamino)pyrrolidin-1-yl)-4-methoxyphenyl)acrylamide] | >2.1
